Results taken from patent US4640910A (Abbott Laboratories, priority 1985, dated 1987).
Values after ≈ are worked out from the molar mass of the structure shown. Like-named read-outs stand apart in the source and are kept apart here.

Assays:
Strep. pneumoniae = assay: Extended mouse protection study; conditions: oral
Strep. pyogenes = assay: Extended mouse protection study; conditions: oral
Staph. aureus = assay: Extended mouse protection study; conditions: oral
Ps. aeruginosa BMH10 = assay: Antimicrobial spectrum, agar dilution MIC; type: cell-based; conditions: Pseudomonas aeruginosa; Ps. aeruginosa BMH10; BHI agar, 35°-37° C., 20-24 hours; read-out: MIC
Staph. aureus A 5177 = assay: Antimicrobial spectrum, agar dilution MIC; type: cell-based; conditions: Staphylococcus aureus, A5177; Staph. aureus A 5177; BHI agar, 35°-37° C., 20-24 hours; read-out: MIC
Ps. cepacia 2961 = assay: Antimicrobial spectrum, agar dilution MIC; type: cell-based; conditions: Burkholderia cepacia; Ps. cepacia 2961; BHI agar, 35°-37° C., 20-24 hours; read-out: MIC
Strep. pyogenes 930 = assay: Antimicrobial spectrum, agar dilution MIC; type: cell-based; conditions: Streptococcus pyogenes, BHI agar, 35°-37° C., 20-24 hours
Ps. aeruginosa A5007 = assay: Antimicrobial spectrum, agar dilution MIC; type: cell-based; conditions: Pseudomonas aeruginosa, BHI agar, 35°-37° C., 20-24 hours
indicated test organism = assay: Acute mouse protection test; type: in vivo, female, Swiss albino mice; conditions: 1 and 5 hours post-infection, 7 days, * = highest level tested
[1] = test system: Providencia stuartii CMX 640; assay: Antimicrobial spectrum, agar dilution MIC; type: cell-based; conditions: CMX640; Providencia stuartii CMX 640; BHI agar, 35°-37° C., 20-24 hours; read-out: MIC
Micrococcus luteus 9341 = assay: Antimicrobial spectrum, agar dilution MIC; type: cell-based; conditions: Micrococcus luteus, 9341
[2] = test system: Lactobacillus casei ATCC 7469; assay: Antimicrobial spectrum, agar dilution MIC; type: cell-based; conditions: Lacticaseibacillus casei, ATCC7469
Ps. aeruginosa K799/WT = assay: Antimicrobial spectrum, agar dilution MIC; type: cell-based; conditions: Pseudomonas aeruginosa, BHI agar, 35°-37° C., 20-24 hours
[3] = test system: Enterobact. aerogenes ATCC 13048; assay: Antimicrobial spectrum, agar dilution MIC; type: cell-based; conditions: Enterobact. aerogenes ATCC 13048; BHI agar, 35°-37° C., 20-24 hours; read-out: MIC
[4] = Stability and release of drug from prodrug in aqueous buffers pH 2 to 12 (dissolution apparatus, HPLC); type: physicochemical
Protocol: Samples of 2'-trimethylsilylerythromycin A and 2'-trimethylsilyl-6-O-methylerythromycin A were dissolved in 10-50 ml dimethyl sulfoxide or acetonitrile to give a solution containing 15-75 mg/ml. An aliquot containing 75 mg of prodrug was added to aqueous buffers ranging in pH from 2 to 12 to give a final volume equal to 500 ml. The buffered mixtures were stirred at 37° C. for at least 90 minutes. A standard dissolution test apparatus (Vanderkamp 600, Van-Kel Industries, Inc., 36 Meridian Road, Edisoin, N.J. 08820) was used to provide temperature and stirring rate control.
Aliquots were taken at 15, 30, 45, 60, 90, 120, 180, 240 and 360 minutes for analysis. Each sample was mixed with an internal standard, adjusted rapidly to pH 9 with 1M tricine buffer and extracted immediately with ethyl acetate. The organic extracts were evaporated and redissolved in a solution of 3% tetrahydrofuran in heptane. Samples of these solutions were injected using an autosampler (WISP 71)B, Waters Chromatography, Division of Millipore, 34 Maple Street, Milford, Mass. 01757). The prodrugs and drugs were separated by high performance liquid chromatography, detected at 225 nm using a spectrophotometer (Spectroflow 773 Absorbence Detector, Kratos Analytical Instruments), and were quantified with a digital integrator.

[5] = carboxymethylcellulose with milk (reduces gastric acid secretion)
[6] = phosphate buffer solution with milk (reduces gastric acid secretion)
[7] = Mus musculus, po, 168 h, oral administration, read-out: ED50
[8] = Mus musculus, sc, 168 h, subcutaneous administration, read-out: ED50
[9] = Mus musculus, sc, 168 h, subcutaneous administration
[10] = Mus musculus, po, 168 h, oral administration

Molecule CC[C@H]1OC(=O)[C@H](C)[C@@H](O[C@H]2C[C@@](C)(OC)[C@@H](O)[C@H](C)O2)[C@H](C)[C@@H](O[C@@H]2O[C@H](C)C[C@H](N(C)C)[C@H]2O)[C@](C)(OC)C[C@@H](C)C(=O)[C@H](C)[C@@H](O)[C@]1(C)O [6-O-methyl erythromycin A] has an ED50 (Strep. pneumoniae; carboxymethylcellulose) of 2.4 mg/kg/day, an ED50 (Strep. pneumoniae; [5]) of 2.2 mg/kg/day and an ED50 (Strep. pneumoniae; phosphate buffer solution) of 1.6 mg/kg/day. For the same molecule, the ED50 (Strep. pneumoniae; [6]) was 1.6 mg/kg/day, the ED50 (Strep. pyogenes; [5]) was 5.3 mg/kg/day and the ED50 (Strep. pyogenes; phosphate buffer solution) was 5.9 mg/kg/day. The ED50 (Strep. pyogenes; [6]) was 11.1 mg/kg/day, the ED50 (Staph. aureus; carboxymethylcellulose) was 25.0 mg/kg/day and the ED50 (Staph. aureus; phosphate buffer solution) was 27.2 mg/kg/day.

CC[C@H]1OC(=O)[C@H](C)[C@@H](O[C@H]2C[C@@](C)(OC)[C@@H](O)[C@H](C)O2)[C@H](C)[C@@H](O[C@@H]2O[C@H](C)C[C@H](N(C)C)[C@H]2O)[C@](C)(O)C[C@@H](C)C(=O)[C@H](C)[C@@H](O)[C@]1(C)O [Erythromycin A, reference compound] showed an MIC (Ps. aeruginosa BMH10) of 100 µg/mL (≈ 136 µM), an MIC (Staph. aureus A 5177) of 0.78 µg/mL (≈ 1.06 µM) and an MIC (Ps. cepacia 2961) of 100 µg/mL (≈ 136 µM). For the same molecule, the ED50 (Strep. pyogenes; phosphate buffer solution) was 37.2 mg/kg/day, the MIC (Strep. pyogenes 930) was 100 µg/mL (≈ 136 µM) and the MIC (Ps. aeruginosa A5007) was 100 µg/mL (≈ 136 µM). The ED50 (indicated test organism; [7]) was 75.7 mg/kg, the ED50 (indicated test organism; [8]) was 10.9 mg/kg and the ED50 (indicated test organism; oral administration, 10080 min) was 48.8 mg/kg/day. The MIC [1] was 100 µg/mL (≈ 136 µM), the MIC (Micrococcus luteus 9341) was 0.02 µg/mL (≈ 0.0273 µM) and the MIC [2] was 0.05 µg/mL (≈ 0.0681 µM). The MIC (Ps. aeruginosa K799/WT) was 100 µg/mL (≈ 136 µM), the MIC [3] was 100 µg/mL (≈ 136 µM) and the ED50 (Staph. aureus; carboxymethylcellulose) was 86.0 mg/kg/day. It also gave an ED50 (Staph. aureus; phosphate buffer solution) of 75.7 mg/kg/day.

For CC[C@H]1OC(=O)[C@H](C)[C@@H](O[C@H]2C[C@@](C)(OC)[C@@H](O)[C@H](C)O2)[C@H](C)[C@@H](O[C@@H]2O[C@H](C)C[C@H](N(C)C)[C@H]2O[Si](C)(C)C)[C@](C)(O)C[C@@H](C)C(=O)[C@H](C)[C@@H](O)[C@]1(C)O [Example 2, 2'-O-Trimethylsilyl Erythromycin A], the degradation ([4]; pH 2 and 4, 37° C.) was “degraded to anhydroerythromycin A”, the anhydroerythromycin formed ([4]; pH 6, 37° C.) was “significant amounts” and the “erythromycin A detected” value ([4]; pH 6, 37° C.) was “A very small amount”. The erythromycin formed ([4]; pH 8, 10 or 12, 37° C.) was “No erythromycin was formed”.

With CC[C@H]1OC(=O)[C@H](C)[C@@H](O[C@H]2C[C@@](C)(OC)[C@@H](O[Si](C)(C)C)[C@H](C)O2)[C@H](C)[C@@H](O[C@@H]2O[C@H](C)C[C@H](N(C)C)[C@H]2O)[C@](C)(O)C[C@@H](C)C(=O)[C@H](C)[C@@H](O)[C@]1(C)O [Example 8, 4"-O-trimethylsilyl erythromycin A] the ED50 (indicated test organism; [7]) was 99.7 mg/kg, the ED50 (indicated test organism; [8]) was 16 mg/kg and the ED50 (indicated test organism; oral administration, listed as 4"-O--TMS Ery A, 10080 min) was 61.5 mg/kg/day.

In the case of CC[C@H]1OC(=O)[C@H](C)[C@@H](O[C@H]2C[C@@](C)(OC)[C@@H](O[Si](C)(C)C)[C@H](C)O2)[C@H](C)[C@@H](O[C@@H]2O[C@H](C)C[C@H](N(C)C)[C@H]2O)[C@](C)(OC)C[C@@H](C)C(=O)[C@H](C)[C@@H](O[Si](C)(C)C)[C@]1(C)O [Example 10, 4"-11-bis(O-TMS)-6-O-methyl erythromycin A], the ED50 (indicated test organism; [7]) was 51.8 mg/kg and the ED50 (indicated test organism; [9]) was 40 mg/kg.

For CC[C@H]1OC(=O)[C@H](C)[C@@H](O[C@H]2C[C@@](C)(OC)[C@@H](O)[C@H](C)O2)[C@H](C)[C@@H](O[C@@H]2O[C@H](C)C[C@H](N(C)C)[C@H]2O[Si](C)(C)C)[C@](C)(O)C[C@@H](C)C(=NO[Si](C)(C)C)[C@H](C)[C@@H](O)[C@]1(C)O [Example 11, 2',9-bis(O-trimethylsilyl)-Erythromycin A-9-oxime], the ED50 (indicated test organism; [10]) was 150 mg/kg and the ED50 (indicated test organism; [9]) was 40 mg/kg.

CC[C@H]1OC(=O)[C@H](C)[C@@H](O[C@H]2C[C@@](C)(OC)[C@@H](O[Si](C)(C)C)[C@H](C)O2)[C@H](C)[C@@H](O[C@@H]2O[C@H](C)C[C@H](N(C)C)[C@H]2OC(C)=O)[C@](C)(O)C[C@@H](C)C(=O)[C@H](C)[C@@H](O[Si](C)(C)C)[C@]1(C)O [Example 12, 2'-Acetyl-4",11-bis (-O-TMS)-Erythromycin A] gave an ED50 (indicated test organism; [10]) of 250 mg/kg and an ED50 (indicated test organism; [9]) of 40 mg/kg.
